Measured values as given in ChEMBL document CHEMBL5463723, “Data for DCP probe BIBO3304” (2023).

Tests used:
[1] = target: Glucocorticoid receptor (Homo sapiens) (UniProt P04150); assay: Activity against GCORTIC/H in the Eurofins Panlabs screen (BI) by Radioactive Assay; conditions: Compound concentration 10.0 uM
[2] = target: Cannabinoid receptor 1 (Homo sapiens) (UniProt P21554); assay: CB1 Eurofins-Cerep binding assay; conditions: Compound concentration 10.0 uM
Chain of Cannabinoid receptor 1 (Homo sapiens) (P21554 whole entry): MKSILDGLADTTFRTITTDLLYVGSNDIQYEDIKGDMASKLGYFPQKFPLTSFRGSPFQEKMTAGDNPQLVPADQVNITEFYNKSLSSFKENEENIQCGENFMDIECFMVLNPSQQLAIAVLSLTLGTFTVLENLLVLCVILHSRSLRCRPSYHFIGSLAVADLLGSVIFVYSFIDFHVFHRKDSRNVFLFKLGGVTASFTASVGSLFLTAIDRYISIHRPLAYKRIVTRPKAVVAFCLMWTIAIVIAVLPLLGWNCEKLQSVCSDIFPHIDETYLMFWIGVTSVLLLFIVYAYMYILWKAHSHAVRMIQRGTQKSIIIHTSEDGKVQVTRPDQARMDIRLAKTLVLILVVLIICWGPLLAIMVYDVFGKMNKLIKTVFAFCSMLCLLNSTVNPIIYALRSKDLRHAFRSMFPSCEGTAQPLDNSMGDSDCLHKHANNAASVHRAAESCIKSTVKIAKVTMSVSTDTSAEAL

Chain of Glucocorticoid receptor (Homo sapiens) (P04150 whole entry): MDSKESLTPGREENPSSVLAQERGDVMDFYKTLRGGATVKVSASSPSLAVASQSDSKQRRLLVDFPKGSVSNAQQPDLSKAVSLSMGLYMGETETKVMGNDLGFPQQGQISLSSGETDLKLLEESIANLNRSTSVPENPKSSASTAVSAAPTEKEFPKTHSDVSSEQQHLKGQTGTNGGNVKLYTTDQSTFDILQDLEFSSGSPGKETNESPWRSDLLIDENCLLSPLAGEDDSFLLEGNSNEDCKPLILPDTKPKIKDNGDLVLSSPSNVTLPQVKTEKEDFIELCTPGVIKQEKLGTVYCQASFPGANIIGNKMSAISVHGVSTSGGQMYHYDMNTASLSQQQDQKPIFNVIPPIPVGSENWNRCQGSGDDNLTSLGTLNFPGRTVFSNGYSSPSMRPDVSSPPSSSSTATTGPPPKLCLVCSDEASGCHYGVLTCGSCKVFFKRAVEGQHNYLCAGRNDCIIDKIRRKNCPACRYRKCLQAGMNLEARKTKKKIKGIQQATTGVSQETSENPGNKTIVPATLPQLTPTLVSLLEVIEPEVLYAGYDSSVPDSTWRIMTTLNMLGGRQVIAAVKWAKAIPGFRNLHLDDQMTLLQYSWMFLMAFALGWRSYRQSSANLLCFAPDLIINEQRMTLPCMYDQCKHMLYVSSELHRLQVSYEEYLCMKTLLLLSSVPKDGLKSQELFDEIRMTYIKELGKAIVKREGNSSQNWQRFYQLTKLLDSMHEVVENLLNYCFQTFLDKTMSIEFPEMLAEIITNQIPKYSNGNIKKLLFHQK

- residual activity [1]: 86%
- residual activity [2]: 107%
Compound: N=C(N)NCCC[C@@H](NC(=O)C(c1ccccc1)c1ccccc1)C(=O)NCc1ccc(CNC(N)=O)cc1
